Earlier results as cited in patent US8039024B2, “Device and composition for the delivery of a preservative-free balsamic cream” (APR Applied Pharma Research, S.A., priority 2008, dated 2011).

Details: sprayed directly onto the nasal mucosa of dogs and humans

| SMILES | decongestant action |
| --- | --- |
| CC12CCC(CC1=O)C2(C)C (centres unmarked) [camphor, Camphor] | no decongestant action |
| CC1CCC(C(C)C)C(O)C1 (centres unmarked) [menthol, Menthol] | no decongestant action |
